Reference: patent US11000033B2, “Ketone or oxime compound, and herbicide” (NISSAN CHEMICAL CORPORATION, priority 2014, dated 2021)

Experiments:
Type in all cases: in vivo
Digitaria ciliaris = assay: Test Example 5: herbicidal effect by foliage application, plastic box (symbol F); conditions: 320 g/ha, 3 weeks after application
Description: (§1) Herbicidal Effect Test by Foliage Application
(§2) Sterilized diluvial soil was placed in a plastic box having a length of 21 cm, a width of 13 cm, and a depth of 7 cm. Each of the seeds of Digitaria ciliaris, Setaria viridis, Echinochloa crus-galli var. crus-galli, Avena fatua, Alopecurus myosuroides, Lolium multiflorum Lam., Apera spica-venti, Abutilon theophrasti, Amaranthus retroflexus, Chenopodium album, Stellaria media, Galium spurium, Veronica persica, corn, soybean, rice plant, wheat, beet, and rapeseed was sowed in a spot-like manner and was covered with the soil of a thickness of about 1.5 cm. Thereafter, the plants were grown in the greenhouse of 25° C. to 30° C. After the plants were grown for 14 days, the emulsion agent of the compound of the present invention prepared in accordance with Formulation Example 2 was diluted with water so as to be a predetermined herbicide amount and the diluted emulsion agent was uniformly applied to a foliage part with a small-size spray. 3 weeks later from the herbicide application, the effect to each plant was investigated in accordance with the criteria of Test Example 1.

Setaria viridis = assay: Test Example 5: herbicidal effect by foliage application, plastic box (symbol G); conditions: 320 g/ha, 3 weeks after application
Description: as §1, §2

[1] = system: Echinochloa crus-galli var. crus-galli; assay: Test Example 5: herbicidal effect by foliage application, plastic box (symbol H); conditions: 320 g/ha, 3 weeks after application
Description: as §1, §2

Avena fatua = assay: Test Example 5: herbicidal effect by foliage application, plastic box (symbol I); conditions: 320 g/ha, 3 weeks after application
Description: as §1, §2

Alopecurus myosuroides = assay: Test Example 5: herbicidal effect by foliage application, plastic box (symbol J); conditions: 320 g/ha, 3 weeks after application
Description: as §1, §2

Lolium multiflorum Lam. = assay: Test Example 5: herbicidal effect by foliage application, plastic box (symbol K); conditions: 320 g/ha, 3 weeks after application
Description: as §1, §2

Apera spica-venti = assay: Test Example 5: herbicidal effect by foliage application, plastic box (symbol L); conditions: 320 g/ha, 3 weeks after application
Description: as §1, §2

Abutilon theophrasti = assay: Test Example 5: herbicidal effect by foliage application, plastic box (symbol M); conditions: 320 g/ha, 3 weeks after application
Description: as §1, §2

Amaranthus retroflexus = assay: Test Example 5: herbicidal effect by foliage application, plastic box (symbol N); conditions: 320 g/ha, 3 weeks after application
Description: as §1, §2

Chenopodium album = assay: Test Example 5: herbicidal effect by foliage application, plastic box (symbol O); conditions: 320 g/ha, 3 weeks after application
Description: as §1, §2

Stellaria media = assay: Test Example 5: herbicidal effect by foliage application, plastic box (symbol P); conditions: 320 g/ha, 3 weeks after application
Description: as §1, §2

Veronica persica = assay: Test Example 5: herbicidal effect by foliage application, plastic box (symbol R); conditions: 320 g/ha, 3 weeks after application
Description: as §1, §2

corn = assay: Test Example 5: effect on crop by foliage application, plastic box (symbol c); conditions: 320 g/ha, 3 weeks after application
Description: as §1
(§3) Sterilized diluvial soil was placed in a plastic box having a length of 21 cm, a width of 13 cm, and a depth of 7 cm. Each of the seeds of Digitaria ciliaris, Setaria viridis, Echinochloa crus-galli var. crus-galli, Avena fatua, Alopecurus myosuroides, Lolium multiflorum Lam., Apera spica-venti, Abutilon theophrasti, Amaranthus retroflexus, Chenopodium album, Stellaria media, Galium spurium, Veronica persica, corn, soybean, rice plant, wheat, beet, and rapeseed was sowed in a spot-like manner and was covered with the soil of a thickness of about 1.5 cm. Thereafter, the plants were grown in the greenhouse of 25° C. to 30° C.

soybean = assay: Test Example 5: effect on crop by foliage application, plastic box (symbol d); conditions: 320 g/ha, 3 weeks after application
Description: as §1, §3

rice plant = assay: Test Example 5: effect on crop by foliage application, plastic box (symbol b); conditions: 320 g/ha, 3 weeks after application
Description: as §1, §3

wheat = assay: Test Example 5: effect on crop by foliage application, plastic box (symbol e); conditions: 320 g/ha, 3 weeks after application
Description: as §1, §3

beet = assay: Test Example 5: effect on crop by foliage application, plastic box (symbol f); conditions: 320 g/ha, 3 weeks after application
Description: as §1, §3

rapeseed = assay: Test Example 5: effect on crop by foliage application, plastic box (symbol g); conditions: 320 g/ha, 3 weeks after application
Description: as §1, §3

[2] = system: Echinochloa crus-galli var. crus-galli; assay: Test Example 3: herbicidal effect by foliage application, Wagner pot (symbol H); conditions: application herbicide amount 320 g/ha
Protocol: as §1
(§4) After alluvial soil was placed into 1/10000 are of Wagner pot, water was poured and mixed to form a submerged condition having a water depth of 0.1 cm to 0.5 cm. Seeds of Echinochloa crus-galli var. crus-galli, Leptochloa chinensis, Cyperus difformis, and rice were sowed and the pot was placed in the greenhouse of 25° C. to 30° C. to grow the plants. After the plants were grown for 14 days, the emulsion agent of the compound of the present invention prepared in accordance with Formulation Example 2 was diluted with water so as to be a predetermined herbicide amount and the diluted emulsion agent was uniformly applied to a foliage part with a small-size spray. 3 weeks later from the herbicide application, the effect to each plant was investigated in accordance with the criteria of Test Example 1.

Leptochloa chinensis = assay: Test Example 3: herbicidal effect by foliage application, Wagner pot (symbol D); conditions: application herbicide amount 320 g/ha
Protocol: as §1, §4

Cyperus difformis = assay: Test Example 3: herbicidal effect by foliage application, Wagner pot (symbol E); conditions: application herbicide amount 320 g/ha
Protocol: as §1, §4

[3] = system: directly sowed rice plant; assay: Test Example 3: effect on crop by foliage application, Wagner pot (symbol b); conditions: application herbicide amount 320 g/ha
Protocol: as §1
After alluvial soil was placed into 1/10000 are of Wagner pot, water was poured and mixed to form a submerged condition having a water depth of 0.1 cm to 0.5 cm. Seeds of Echinochloa crus-galli var. crus-galli, Leptochloa chinensis, Cyperus difformis, and rice were sowed and the pot was placed in the greenhouse of 25° C. to 30° C. to grow the plants.

[4] = system: Echinochloa oryzacola Vasing.; assay: Test Example 1: herbicidal activity, application before weed generation in submerged conditions (symbol A); conditions: application herbicide amount 320 g/ha
Description: (§5) Herbicidal Activity Test by Application Before Weed Generation in Submerged Conditions
(§6) After alluvial soil was placed into 1/10000 are of Wagner pot, water was poured and mixed to form a submerged condition having a water depth of 4 cm. Seeds of Echinochloa oryzacola Vasing., Scirpus juncoides, and Monochoria vaginalis were sowed in a mixed manner in the above pot and thereafter 2.5 leaf stage rice plant seedlings were transplanted thereto. On the day of sowing seeds, the emulsion agent of the compound of the present invention prepared in accordance with Formulation Example 2 was diluted with water so as to be a predetermined herbicide amount and the diluted emulsion agent was applied to the surface of the water. The pot was placed in a greenhouse of 25° C. to 30° C. to grow plant. 3 weeks later from the herbicide application, the effect to each plant was investigated in accordance with the following criteria.
(§7) 5 Herbicidal ratio of 90% or more (almost completely withered)
(§8) 4 Herbicidal ratio of 70% or higher and lower than 90%
(§9) 3 Herbicidal ratio of 40% or higher and lower than 70%
(§10) 2 Herbicidal ratio of 20% or higher and lower than 40%
(§11) 1 Herbicidal ratio of 5% or higher and lower than 20%
(§12) 0 Herbicidal ratio of 5% or lower (almost no effect)

Scirpus juncoides = assay: Test Example 1: herbicidal activity, application before weed generation in submerged conditions (symbol B); conditions: application herbicide amount 320 g/ha
Description: as §5, §6, §7, §8, §9, §10, §11, §12

Monochoria vaginalis = assay: Test Example 1: herbicidal activity, application before weed generation in submerged conditions (symbol C); conditions: application herbicide amount 320 g/ha
Description: as §5, §6, §7, §8, §9, §10, §11, §12

transplanted rice plant = assay: Test Example 1: effect on crop, application before weed generation in submerged conditions (symbol a); conditions: application herbicide amount 320 g/ha
Protocol: as §5
as §6, with “On the day of sowing seeds, the emulsion agent of the compound of the present invention prepared in accordance with Formulation Example 2 was diluted with water so as to be a predetermined herbicide amount and the diluted emulsion agent was applied to the surface of the water.” left out
as §7, §8, §9, §10, §11, §12

## CCC(C(C)=O)(C(=O)OC)C1CC(O)=C(c2c(C)cc(C)cc2C)C1=O (centres unmarked) [2-023]
Digitaria ciliaris
  F: Digitaria ciliaris, herbicidal effect grade: 0 (Herbicidal ratio of 5% or lower (almost no effect))
Setaria viridis
  G: Setaria viridis, herbicidal effect grade: 0 (Herbicidal ratio of 5% or lower (almost no effect))
[1]
  H: Echinochloa crus-galli var. crus-galli, herbicidal effect grade: 1 (Herbicidal ratio of 5% or higher and lower than 20%)
Avena fatua
  I: Avena fatua, herbicidal effect grade: 0 (Herbicidal ratio of 5% or lower (almost no effect))
Alopecurus myosuroides
  J: Alopecurus myosuroides, herbicidal effect grade: 0 (Herbicidal ratio of 5% or lower (almost no effect))
Lolium multiflorum Lam.
  K: Lolium multiflorum Lam., herbicidal effect grade: 1 (Herbicidal ratio of 5% or higher and lower than 20%)
Apera spica-venti
  L: Apera spica-venti, herbicidal effect grade: 0 (Herbicidal ratio of 5% or lower (almost no effect))
Abutilon theophrasti
  M: Abutilon theophrasti, herbicidal effect grade: 0 (Herbicidal ratio of 5% or lower (almost no effect))
Amaranthus retroflexus
  N: Amaranthus retroflexus, herbicidal effect grade: 0 (Herbicidal ratio of 5% or lower (almost no effect))
Chenopodium album
  O: Chenopodium album, herbicidal effect grade: 0 (Herbicidal ratio of 5% or lower (almost no effect))
Stellaria media
  P: Stellaria media, herbicidal effect grade: 0 (Herbicidal ratio of 5% or lower (almost no effect))
Veronica persica
  R: Veronica persica, herbicidal effect grade: 0 (Herbicidal ratio of 5% or lower (almost no effect))
corn
  c: corn, effect on crop grade: 0 (Herbicidal ratio of 5% or lower (almost no effect))
soybean
  d: soybean, effect on crop grade: 0 (Herbicidal ratio of 5% or lower (almost no effect))
Rice plant
  b: directly sowed rice plant, effect on crop grade: 3 (Herbicidal ratio of 40% or higher and lower than 70%)
wheat
  e: wheat, effect on crop grade: 0 (Herbicidal ratio of 5% or lower (almost no effect))
beet
  f: beet, effect on crop grade: 0 (Herbicidal ratio of 5% or lower (almost no effect))
rapeseed
  g: rapeseed, effect on crop grade: 0 (Herbicidal ratio of 5% or lower (almost no effect))

## CON=C(C)CC1CC(O)=C(c2c(C)cc(OCc3ccncc3)cc2C)C1=O (centres unmarked) [6-070]
[2]
  herbicidal effect on H (Echinochloa crus-galli var. crus-galli), grade 0-5: 0 (Herbicidal ratio of 5% or lower (almost no effect))
Leptochloa chinensis
  herbicidal effect on D (Leptochloa chinensis), grade 0-5: 4 (Herbicidal ratio of 70% or higher and lower than 90%)
Cyperus difformis
  herbicidal effect on E, grade 0-5: 0 (Herbicidal ratio of 5% or lower (almost no effect))
[3]
  effect on crop b (directly sowed rice plant), grade 0-5: 0 (Herbicidal ratio of 5% or lower (almost no effect))

## CC(=O)CC1CC(O)=C(c2c(C)cc(OCc3ccncc3)cc2C)C1=O (centres unmarked) [7-021]
[2]
  herbicidal effect on H (Echinochloa crus-galli var. crus-galli), grade 0-5: 2 (Herbicidal ratio of 20% or higher and lower than 40%)
Leptochloa chinensis
  herbicidal effect on D (Leptochloa chinensis), grade 0-5: 2 (Herbicidal ratio of 20% or higher and lower than 40%)
Cyperus difformis
  herbicidal effect on E, grade 0-5: 0 (Herbicidal ratio of 5% or lower (almost no effect))
[3]
  effect on crop b (directly sowed rice plant), grade 0-5: 0 (Herbicidal ratio of 5% or lower (almost no effect))

## CC(=O)CC1CC(O)=C(c2c(C)cc(C=Cc3ccccc3)cc2C)C1=O (centres unmarked) [7-023]
[4]
  Herbicidal effect grade, A: Echinochloa oryzacola Vasing.: 2 (Herbicidal ratio of 20% or higher and lower than 40%)
Scirpus juncoides
  Herbicidal effect grade, B: Scirpus juncoides: 0 (Herbicidal ratio of 5% or lower (almost no effect))
Monochoria vaginalis
  Herbicidal effect grade, C: Monochoria vaginalis: 0 (Herbicidal ratio of 5% or lower (almost no effect))
Transplanted rice plant
  Effect grade on crop, a: transplanted rice plant: 1 (Herbicidal ratio of 5% or higher and lower than 20%)
[2]
  herbicidal effect on H (Echinochloa crus-galli var. crus-galli), grade 0-5: 0 (Herbicidal ratio of 5% or lower (almost no effect))
Leptochloa chinensis
  herbicidal effect on D (Leptochloa chinensis), grade 0-5: 5 (Herbicidal ratio of 90% or more (almost completely withered))
Cyperus difformis
  herbicidal effect on E, grade 0-5: 0 (Herbicidal ratio of 5% or lower (almost no effect))
[3]
  effect on crop b (directly sowed rice plant), grade 0-5: 0 (Herbicidal ratio of 5% or lower (almost no effect))

## COC(=O)C(C(C)=O)C1CC(O)=C(c2c(F)cc(Br)cc2OC)C1=O (centres unmarked) [7-028]
[2]; Table 24
  H (Echinochloa crus-galli var. crus-galli) herbicidal effect grade: 0 (Herbicidal ratio of 5% or lower (almost no effect))
Leptochloa chinensis; Table 24
  D (Leptochloa chinensis) herbicidal effect grade: 0 (Herbicidal ratio of 5% or lower (almost no effect))
Cyperus difformis; Table 24
  E herbicidal effect grade: 0 (Herbicidal ratio of 5% or lower (almost no effect))
[3]; Table 24
  b (directly sowed rice plant) effect on crop grade: 0 (Herbicidal ratio of 5% or lower (almost no effect))
